Reference: patent US20070161691A1, “Modified-protein formation inhibitor” (TOKAI UNIVERSITY, priority 2003, published 2007)

What was measured:
pentosidine formation = assay: AGEs (pentosidine) formation inhibiting effect in plasma from dialysis patients; format: biochemical, human; conditions: for Pentosidine formation: 5 mM; for pentosidine formation suppression: plasma from the patients with dialysis
Method: Before dialysis, blood samples were obtained from non-diabetic volunteer dialysis patients with renal failure, and fresh heparinized plasma samples were prepared therefrom Pooled plasma obtained from several patients (n=3˜5) was served to the test. 4-(5-phenyltetrazol-1-ylmethyl)-morpholine (Compound 1), 5-methyl-1-(5-phenyltetrazol-1-ylmethyl)-3a,6a-dihydro-1H-pyrrolo[3,4-d][1,2,3]triazole-4,6-dione (Compound 2) or (5-phenyltetrazol-1-yl)methanol (Compound 3) adjusted to a designed concentration ([…]), in DMSO solution (100 μl), was added to the pooled plasma (900 μl) and incubated at 37° C. for 7 days in the presence of air. Then, the amount of pentosidine was measured to estimate the suppressive effect on the glycation of protein.
Measurement of the amount of pentosidine was made as follows: to each incubated sample (50 μL) was added an equal volume of 10% trichloroacetic acid, followed by centrifugation at 5000 g for 5 minutes; after removal of the supernatant, the pellet was washed by 5% trichloroacetic acid (300 μL); the pellet was dried under reduced pressure and then subjected to hydrolysis in 6N HCI solution (100 μL) at 110° C. under nitrogen atmosphere for 16 hours; to the hydrolysate, 5N NaOH (100 μL) and 0.5 M phosphate buffer (pH 7.4) (200 μL) were added, followed by filtration through a porefilter with a pore size of 0.5 μm and dilution with PBS. The concentration of free pentosidine was determined by reversed-phase HPLC using a fluorescence detector (RF-10A, Shimazu Seisakusho) (Miyata, T. et al.: Proc. Natl. Acad. Sci. USA, 93, 2353-2358, 1996). The effluent was monitored at 335/385 nm of excitation/emission wavelength. Synthetic pentosidine was used as the standard. The detection limit of pentosidine was 0.1 pmol/mg protein.
The inhibiting effect was estimated by comparing with positive control (aminoguanidine and pyridoxamine (Sigma)) reacted in the same manner as 4-(5-phenyltetrazol-1-yl-methyl)-morpholine (Compound 1), 5-methyl-1-(5-phenyltetrazol-1-ylmethyl)-3a,6a-dihydro-1H-pyrrolo[3,4-d][1,2,3]triazole-4,6-dione (Compound 2) and (5-phenyltetrazol-1-yl)methanol (Compound 3).

[1] = Suppressive effect on the hydroxylation of phenylalanine with hydroxy radical; format: biochemical; conditions: in comparison with pyridoxamine as positive control; 0.1, 0.5, 2.5 mM
Method: Phenylalanine (final concentration: 1 mM), test compound (final concentration: 0.1, 0.5, 2.5 mM), hydrogen peroxide (final concentration: 5 mM) and cupric sulfate (final concentration: 0.1 mM) were dissolved in 200 mM of phosphate buffer (pH7.4) (total volume 500 μL), followed by incubation at 37° C. for 4 hours. Then, DTPA (final concent-ration: 1 mM) and 260 unit of catalase were added thereto to interrupt the reaction. The amounts of o-tyrosine and m-tyrosine formed were determined by HPLC in the following manner: after a designed period of time, the reaction mixture was diluted to 100 folds; 20 μL of the dilution was injected onto HPLC, separation was made with C18 column (4.6×250 mm, 5 μm; Nomura Kagaku) and detection was effected using a fluorescence detector (RF-10A: Shimazu Seisakusho) under the condition of an excitation wavelength of 275 nm and a fluorescence wavelength of 305 nm. In the mobile phase, the flow rate was 0.6mL/min and the concentration of buffer B was varied from 6.5% to 10% in 25 minutes (buffer A: 0.10% trifluoroacetic acid; buffer B: 80% acetonitrile containing 0.08% trifluoroacetic acid).

[2] = Suppressing effect on the nitration of tyrosine with peroxynitrite; format: biochemical; conditions: in comparison with pyridoxamine as positive control; 0.1, 0.5, 2.5 and 5 mM
Method: According to the method of Pannala, A.S. et al. (Free Radic. Biol. Med., 24:594-606, 1998), the examination was carried out. Namely, tyrosine (final concentration: 100 μM), the test compound (final concentration: 0.1, 0.5, 2.5 and 5 mM) and peroxynitrite (Dojin Kagaku) (final concentration: 500 μM) were dissolved in 200 mM of phosphate buffer (pH7.4) (liquid volume 500 μL) and incubated at 37° C. for 15 minutes. After incubation, the nitrotyrosine formation was determined with HPLC in the following manner: after a predifined time, the reaction mixture (20 μL) was injected onto HPLC, separation was made with C18 column (4.6×250 mm, 5 μm: Waters) and the detection was effected using a ultraviolet detector (RF-10A: Shimazu Seisakusho) at a wavelength of 280 nm. In the mobile phase, the flow rate was 0.6 mL/min and the concentration of buffer B was varied from 5.0% to 30% in 30 minutes (buffer A: 0.10% trifluoroacetic acid; buffer B: 80% acetonitrile containing 0.08% trifluoroacetic acid). 4-Hydroxy-3-nitrobenzoic acid (100 μM) was used as the internal standard.

[3] = Vitamin B6 (PLP; pyridoxal phosphate) trapping; format: biochemical; conditions: 500 μM compound, 50 μM PLP, PBS
Method: To a solution of vitamin B6, the compound of this invention is added, and after a certain period of time, an amount of vitamin B6 remained is determined.
4-(5-phenyltetrazol-1-ylmethyl)-morpholine (Compound 1), 5-methyl-1-(5-phenyltetrazol-1-ylmethyl)-3a,6a-dihydro-1H-pyrrolo[3,4-d][1,2,3]triazol-4,6-dione (Compound 2) and (5-phenyltetrazol-1-yl)methanol (Compound 3) as well as aminoguanidine as the positive control were each dissolved in DMSO in a designed concentration to make a sample solution. DMSO itself was used as the negative control. In addition, pyridoxal phosphate (PLP) was dissolved in purified-water to make a designed concentration. PBS was added to each of the test compound, the positive control and the negative control, to make a final concentration of 500 μM. The PLP solution as above prepared was added to each of the resultant solution to make a final concentration of 50 μM for preparation of the PLP reaction solution. Using HPLC, the amount of PLP in the PLP reaction solution was determined after 0.1 and 10 hours, from which the PLP trapping amount of each test compound was ascertained.
The analysis of PLP using HPLC was carried out by separation with reverse-phase C18 column (4.6×250 mm, 5 μm; Waters) and by using a fluorescence detector (RF-10A; Shimazu Seisakusho; excitation wavelength, 300 nm and fluorescence wavelength, 400 nm). In the mobile phase, the flow rate was 0.6 mL/min and the concentration of buffer B was varied from 0% to 3% in 25 minutes (buffer A: 0.10% trifluoroacetic acid; buffer B: 80% acetonitrile containing 0.08% trifluoroacetic acid).

[4] = Absorbability examination, oral administration to rat; format: in vivo; conditions: 50 mg/kg oral
Method: For 4-(5-phenyltetrazol-1-yl methyl)-morpholine (compound 1) and (5-phenyltetrazol-1-yl)methanol (compound 3), their sorbability were examined. Each compounds are suspended in carboxymethyl cellulose in given concentration to prepare sample for oral administration. Then each samples were administered in the ratio of 50 mg/kg to rat using sonde. Five Wister rats (male, 8 weeks aged, closed colony) were used every one group. At one hour, 2 hours, 6 hours and 24 hours after the administration of compound, blood was obtained. The obtained blood samples were immediately cetrifuged at 3000 rpm for 15 minutes to obtain the blood plasma and the concentration of the compound in the specimen was quantitated by HPLC. Briefly, to 100 μL of obtained blood plasma was added to 200 μL of acetonitrile, centrifuged at 12000 rpm for 10 minutes to obtain supernatant, deproteinized and served to HPLC. The measuring condition of HPLC was selected from suitable condition for each compounds to separate and quantify. For example, in case of 4-(5-phenyltetrazol-1-yl methyl)-morpholine (compound 1), separated with reverse-phase C18 column (4.6×250 mm, 5 μm: Waters), and then detected using ultraviolet detector (RF-10A: Shimazu Seisakusho) at 240 nm of wavelength to quantify. In mobile phase, the flow rate is 0.8 mL/min and solvent is water: acetonitrile.

[5] = Acute toxicity examination, single oral administration to mouse; conditions: male, in vivo, ICR mice, single oral administration
Method: (§1) For 4-(5-phenyltetrazol-1-ylmethyl)-morpholine (compound 1) and (5-phenyltetrazol-1-yl) methanol (compound 3), acute toxicity test was carried out using mice. Each compounds were suspended in carboxymethyl cellulose in given concentration to prepare sample for oral administration. Then single oral administration was done to mouse. The dose is 100, 250, 500, 1000 and 2000 mg/kg. Five ICR mice (male , 8 weeks aged, closed colony) were used in each group. The test material was administrated to determine LD50 value.

ICR mice = assay: as above; conditions: in vivo, po
Method: as §1

[6] = plasma from dialysis patients, 37° C., 7 days, DMSO negative control 2.960

## CN1CCN(Cn2nnnc2-c2ccccc2)CC1 [Compound 5, 1-methyl-4-(5-phenyltetrazol-1-ylmethyl)-piperazine]
Pentosidine formation; same manner as Table 2
  Pentosidine formation: 0.201 nmol/mL
Pentosidine formation
  pentosidine formation suppression: suppressed remarkably

## OCn1nnnc1-c1ccccc1 [Compound 3, (5-phenyltetrazol-1-yl)-methanol]
Pentosidine formation; [6]
  Pentosidine formation: 0.026 nmol/mL
Pentosidine formation
  pentosidine formation suppression: suppressed remarkably
[1]
  hydroxylation of phenylalanine with hydroxy radical, suppression: suppressed remarkably
[2]
  nitrotyrosine formation, suppression: suppressed remarkably
[3]
  PLP trapping: none
[4]
  sorbability (plasma concentration after oral administration): good sorbability
[5]
  LD50: > 2000 mg/kg
ICR mice
  toxicity: lower toxicity

## Cc1ncc(CO)c(CN)c1O [Pyridoxamine, pyridoxamine, reference compound]
Pentosidine formation; [6]
  Pentosidine formation: 2.280 nmol/mL

## N=C(N)NN [Aminoguanidine, aminoguanidine, reference compound]
Pentosidine formation; [6]
  Pentosidine formation: 2.604 nmol/mL
[3]
  PLP trapping: remarkable PLP trapping

## CN1C(=O)C2N=NN(Cn3nnnc3-c3ccccc3)C2C1=O (stereo not drawn) [Compound 2, 5-methyl-1-(5-phenyltetrazol-1-ylmethyl)-3a,6a-dihydro-1H-pyrrolo[3,4-d][1,2,3]triazole-4,6-dione]
Pentosidine formation; [6]
  Pentosidine formation: 0.320 nmol/mL
Pentosidine formation
  pentosidine formation suppression: suppressed remarkably
[1]
  hydroxylation of phenylalanine with hydroxy radical, suppression: suppressed remarkably
[2]
  nitrotyrosine formation, suppression: suppressed remarkably
[3]
  PLP trapping: none

## c1ccc(-c2nnnn2CN2CCNCC2)cc1 [Compound 4, 1-(5-phenyltetrazol-1-ylmethyl)-piperazine]
Pentosidine formation; same manner as Table 2
  Pentosidine formation: 0.234 nmol/mL
Pentosidine formation
  pentosidine formation suppression: suppressed remarkably

## c1ccc(-c2nnnn2CN2CCSCC2)cc1 [Compound 6, 4-(5-phenyltetrazol-1-ylmethyl)-thiomorpholine]
Pentosidine formation; same manner as Table 2
  Pentosidine formation: 0.149 nmol/mL
Pentosidine formation
  pentosidine formation suppression: suppressed remarkably

## c1ccc(-c2nnnn2CN2CCN(Cn3nnnc3-c3ccccc3)CC2)cc1 [Compound 7, 1,4-bis-(5-phenyltetrazol-1-ylmethyl)-piperazine]
Pentosidine formation; same manner as Table 2
  Pentosidine formation: 0.103 nmol/mL
Pentosidine formation
  pentosidine formation suppression: suppressed remarkably
